What was measured:
KM-H2 = test: cells; type: functional, cell-based; details: Homo sapiens;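 further: growth inhibition of KM-H2 cells, read out by a cell viability assay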
Description: SANGER: Inhibition of human KM-H2 cell growth in a cell viability assay.

NCI-H1963 = test: cells; type: functional, cell-based; details: Homo sapiens;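 further: cell growth inhibition of the human line, determined with a cell viability assay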
Description: SANGER: Inhibition of human NCI-H1963 cell growth in a cell viability assay.

NCI-H2081 = test: cells; type: functional, cell-based; details: Homo sapiens;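 further: growth inhibition of human NCI-H2081 cells, read out with a cell viability assay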
Description: SANGER: Inhibition of human NCI-H2081 cell growth in a cell viability assay.

P31-FUJ = test: cells; type: functional, cell-based; details: Homo sapiens;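 further: growth inhibition of P31-FUJ cells, read out with a viability assay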
Description: SANGER: Inhibition of human P31-FUJ cell growth in a cell viability assay.

MRK-nu-1 = test: cells; type: functional, cell-based; details: Homo sapiens;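 further: cell viability assay measuring growth suppression of human MRK-nu-1 cells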
Description: SANGER: Inhibition of human MRK-nu-1 cell growth in a cell viability assay.

MC-CAR = test: cells; type: functional, cell-based; details: Homo sapiens;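 further: growth inhibition of the human MC-CAR cell line, read out by a cell viability assay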
Description: SANGER: Inhibition of human MC-CAR cell growth in a cell viability assay.

Kasumi 1 = test: cells; type: functional, cell-based; details: Homo sapiens;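 further: growth inhibition of human Kasumi-1 cells, read out by a cell viability assay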
Description: SANGER: Inhibition of human KASUMI-1 cell growth in a cell viability assay.

CHP-126 = test: cells; type: functional, cell-based; details: Homo sapiens
Description: SANGER: Inhibition of human CHP-126 cell growth in a cell viability assay.

IST-SL2 = test: cells; type: functional, cell-based; details: Homo sapiens;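 further: growth inhibition of human IST-SL2 cells, read out by a cell viability assay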
Description: SANGER: Inhibition of human IST-SL2 cell growth in a cell viability assay.

TK-10 = test: cells; type: functional, cell-based, Homo sapiens; details: Homo sapiens, TK-10;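 further: growth inhibition of TK-10 cells, read out in a cell viability assay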
Description: SANGER: Inhibition of human TK10 cell growth in a cell viability assay.

KARPAS-299 = test: cells; type: functional, cell-based; details: Homo sapiens
Description: SANGER: Inhibition of human KARPAS-299 cell growth in a cell viability assay.

NCI-H64 = test: cells; type: functional, cell-based; details: Homo sapiens;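 further: growth inhibition of NCI-H64 cells, read out with a cell viability assay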
Description: SANGER: Inhibition of human NCI-H64 cell growth in a cell viability assay.

COR-L279 = test: SANGER: Inhibition of human COR-L279 cell growth in a cell viability assay.; type: functional, cell-based
SCC-3 = test: cells; type: functional, cell-based; details: Homo sapiens;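 further: cell viability assay measuring inhibition of SCC-3 cell growth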
Description: SANGER: Inhibition of human SCC-3 cell growth in a cell viability assay.

EW-16 = test: cells; type: functional, cell-based, Homo sapiens; details: Homo sapiens, EW-16;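 further: growth inhibition of human EW-16 cells, read out as cell viability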
Description: SANGER: Inhibition of human EW-16 cell growth in a cell viability assay.

NCI-H524 = test: cells; type: functional, cell-based; details: Homo sapiens;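 further: growth inhibition of human NCI-H524 cells, read out through a cell viability assay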
Description: SANGER: Inhibition of human NCI-H524 cell growth in a cell viability assay.

RPMI-8866 = test: cells; type: functional, cell-based; details: Homo sapiens
Description: SANGER: Inhibition of human RPMI-8866 cell growth in a cell viability assay.

IM-9 = test: SANGER: Inhibition of human IM-9 cell growth in a cell viability assay.; type: functional, cell-based
NALM-6 = test: cells; type: functional, cell-based; details: Homo sapiens;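 further: growth inhibition of NALM-6 cells, read out with a cell viability assay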
Description: SANGER: Inhibition of human NALM-6 cell growth in a cell viability assay.

EHEB = test: cells; type: functional, cell-based; details: Homo sapiens;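 further: growth inhibition of human EHEB cells, read out with a cell viability assay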
Description: SANGER: Inhibition of human EHEB cell growth in a cell viability assay.

BC-3 = test: cells; type: functional, cell-based; details: Homo sapiens;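 further: cell viability assay measuring growth inhibition of human BC-3 cells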
Description: SANGER: Inhibition of human BC-3 cell growth in a cell viability assay.

SIMA = test: cells; type: functional, cell-based, Homo sapiens; details: Homo sapiens, SIMA;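 further: growth inhibition of SIMA cells, measured with a cell viability readout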
Description: SANGER: Inhibition of human SIMA cell growth in a cell viability assay.

SIG-M5 = test: cells; type: functional, cell-based; details: Homo sapiens;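 further: cell viability assay read-out, measuring how strongly growth of cultured human SIG-M5 cells is inhibited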
Description: SANGER: Inhibition of human SIG-M5 cell growth in a cell viability assay.

NCI-H748 = test: cells; type: functional, cell-based; details: Homo sapiens;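 further: growth inhibition of NCI-H748 cells, measured by a cell viability assay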
Description: SANGER: Inhibition of human NCI-H748 cell growth in a cell viability assay.

SK-MEL-1 = test: cells; type: functional, cell-based; details: Homo sapiens;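 further: growth inhibition of human SK-MEL-1 cells, read out by a cell viability assay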
Description: SANGER: Inhibition of human SK-MEL-1 cell growth in a cell viability assay.

HCE-T = test: cells; type: functional, cell-based, Homo sapiens; details: Homo sapiens, HCE-T;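 further: cell viability assay read-out, reporting inhibition of HCE-T cell growth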
Description: SANGER: Inhibition of human HCE-T cell growth in a cell viability assay.

NCI-H1694 = test: cells; type: functional, cell-based; details: Homo sapiens;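 further: cell viability assay measuring inhibition of growth in human NCI-H1694 cells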
Description: SANGER: Inhibition of human NCI-H1694 cell growth in a cell viability assay.

CAL-148 = test: cells; type: functional, cell-based; details: Homo sapiens
Description: SANGER: Inhibition of human CAL-148 cell growth in a cell viability assay.

SNU-16 = test: cells; type: functional, cell-based; details: Homo sapiens;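 further: growth inhibition of human SNU-16 cells, determined with a cell viability readout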
Description: SANGER: Inhibition of human NCI-SNU-16 cell growth in a cell viability assay.

RL95-2 = test: cells; type: functional, cell-based; details: Homo sapiens;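 further: RL95-2 growth inhibition determined through a cell viability readout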
Description: SANGER: Inhibition of human RL95-2 cell growth in a cell viability assay.

ARH-77 = test: cells; type: functional, cell-based; details: Homo sapiens;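 further: growth inhibition of ARH-77 cells, read out by a cell viability assay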
Description: SANGER: Inhibition of human ARH-77 cell growth in a cell viability assay.

NCCIT = test: SANGER: Inhibition of human NCCIT cell growth in a cell viability assay.; type: functional, cell-based
ST486 = test: SANGER: Inhibition of human ST486 cell growth in a cell viability assay.; type: functional, cell-based
NCI-H716 = test: cells; type: functional, cell-based; details: Homo sapiens;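 further: growth inhibition of human NCI-H716 cells, measured by a cell viability assay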
Description: SANGER: Inhibition of human NCI-H716 cell growth in a cell viability assay.

DMS-153 = test: cells; type: functional, cell-based; details: Homo sapiens
Description: SANGER: Inhibition of human DMS-153 cell growth in a cell viability assay.

NCI-H322M = test: cells; type: functional, cell-based; details: Homo sapiens;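 further: cell viability assay measuring inhibition of growth of human NCI-H322M cells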
Description: SANGER: Inhibition of human NCI-H322M cell growth in a cell viability assay.

HT55 = test: cells; type: functional, cell-based, Homo sapiens; details: Homo sapiens, HT55;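 further: cell viability readout measuring growth inhibition of human HT55 cells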
Description: SANGER: Inhibition of human HT55 cell growth in a cell viability assay.

ESS-1 = test: cells; type: functional, cell-based, Homo sapiens; details: Homo sapiens, ESS-1;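 further: growth inhibition of human ESS-1 cells, read out by a cell viability assay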
Description: SANGER: Inhibition of human ESS-1 cell growth in a cell viability assay.

HCT-15 = test: cells; type: functional, cell-based, Homo sapiens; details: Homo sapiens, HCT-15;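 further: cell viability readout, IC50 reflecting suppression of HCT-15 cell growth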
Description: SANGER: Inhibition of human HCT-15 cell growth in a cell viability assay.

SKG-IIIa = test: cells; type: functional, cell-based, Homo sapiens; details: Homo sapiens, SKG-IIIa;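 further: cell growth inhibition, read out with a cell viability assay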
Description: SANGER: Inhibition of human SKG-IIIa cell growth in a cell viability assay.

CaR-1 = test: cells; type: functional, cell-based, Homo sapiens; details: Homo sapiens, CaR-1;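 further: growth inhibition of human CaR-1 cancer cells, read out with a cell viability assay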
Description: SANGER: Inhibition of human CaR-1 cell growth in a cell viability assay.

HLE = test: cells; type: functional, cell-based, Homo sapiens; details: Homo sapiens, HLE;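 further: growth inhibition of human HLE cells, read out by a cell viability assay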
Description: SANGER: Inhibition of human HLE cell growth in a cell viability assay.

COR-L23 = test: cells; type: functional, cell-based, Homo sapiens; details: Homo sapiens, COR-L23;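 further: cell viability assay measuring how strongly compounds suppress growth of COR-L23 cells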
Description: SANGER: Inhibition of human COR-L23 cell growth in a cell viability assay.

NCI-H460 = test: cells; type: functional, cell-based, Homo sapiens; details: Homo sapiens, NCI-H460;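 further: cell viability assay scoring growth inhibition of human NCI-H460 cells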
Description: SANGER: Inhibition of human NCI-H460 cell growth in a cell viability assay.

MHH-ES-1 = test: cells; type: functional, cell-based, Homo sapiens; details: Homo sapiens, MHH-ES-1
Description: SANGER: Inhibition of human MHH-ES-1 cell growth in a cell viability assay.

MEL-HO = test: cells; type: functional, cell-based, Homo sapiens; details: Homo sapiens, MEL-HO
Description: SANGER: Inhibition of human MEL-HO cell growth in a cell viability assay.

OVCAR-8 = test: cells; type: functional, cell-based, Homo sapiens; details: Homo sapiens, OVCAR-8;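 further: growth inhibition of human OVCAR-8 cells, read out by a cell viability assay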
Description: SANGER: Inhibition of human OVCAR-8 cell growth in a cell viability assay.

ChaGo-K-1 = test: cells; type: functional, cell-based; details: Homo sapiens;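 further: growth inhibition of ChaGo-K-1 cells, read out with a cell viability assay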
Description: SANGER: Inhibition of human ChaGo-K-1 cell growth in a cell viability assay.

DoTc2-4510 = test: cells; type: functional, cell-based, Homo sapiens; details: Homo sapiens, DoTc2-4510
8305C = test: cells; type: functional, cell-based, Homo sapiens; details: Homo sapiens, 8305C
Description: SANGER: Inhibition of human 8305C cell growth in a cell viability assay.

HPAF-II = test: cells; type: functional, cell-based, Homo sapiens; details: Homo sapiens, HPAF-II;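 further: growth inhibition of HPAF-II cells, read out with a cell viability assay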
Description: SANGER: Inhibition of human HPAF-II cell growth in a cell viability assay.

Measured: IC50

CS(=O)(=O)CCNCc1ccc(-c2ccc3ncnc(Nc4ccc(OCc5cccc(F)c5)c(Cl)c4)c3c2)o1 [LAPATINIB]
> 2000 nM: KM-H2 | NCI-H1963 | NCI-H2081 | P31-FUJ | MRK-nu-1 | MC-CAR | Kasumi 1 | CHP-126 | IST-SL2 | TK-10 | KARPAS-299 | NCI-H64 | COR-L279 | SCC-3 | EW-16 | NCI-H524 | RPMI-8866 | IM-9 | NALM-6 | EHEB | BC-3 | SIMA | SIG-M5 | NCI-H748 | SK-MEL-1 | HCE-T | NCI-H1694 | CAL-148 | SNU-16 | RL95-2 | ARH-77 | NCCIT | ST486 | NCI-H716 | DMS-153 | NCI-H322M

C=CCc1cccc(/C=N/NC(=O)CN2CCN(Cc3ccccc3)CC2)c1O [PAC-1]
> 2560 nM: KM-H2 | NCI-H1963 | NCI-H2081 | P31-FUJ | MRK-nu-1 | IST-SL2 | HT55 | ESS-1 | TK-10 | KARPAS-299 | NCI-H64 | SKG-IIIa | COR-L279 | CaR-1 | SCC-3 | HLE | EW-16 | NCI-H524 | COR-L23 | RPMI-8866 | IM-9 | NCI-H460 | MHH-ES-1 | EHEB | BC-3 | SIMA | SIG-M5 | NCI-H748 | SK-MEL-1 | OVCAR-8 | HCE-T | NCI-H1694 | CAL-148 | SNU-16 | ChaGo-K-1 | ARH-77 | DoTc2-4510 | NCCIT | 8305C | HPAF-II | NCI-H716 | DMS-153 | NCI-H322M
918 nM: CHP-126
1530 nM: MC-CAR
703 nM: NALM-6
967 nM: ST486
1770 nM: MEL-HO
1580 nM: HCT-15

Cc1ccc(Nc2nccc(N(C)c3ccc4c(C)n(C)nc4c3)n2)cc1S(N)(=O)=O [PAZOPANIB]
1640 nM: HLE
1600 nM: ESS-1
2320 nM: NCI-H716
988 nM: HT55
> 8000 nM: KM-H2 | NCI-H1963 | NCI-H2081 | P31-FUJ | MRK-nu-1 | MC-CAR | CHP-126 | IST-SL2 | TK-10 | KARPAS-299 | HCT-15 | NCI-H64 | SKG-IIIa | COR-L279 | CaR-1 | SCC-3 | EW-16 | NCI-H524 | COR-L23 | RPMI-8866 | IM-9 | NALM-6 | NCI-H460 | MHH-ES-1 | EHEB | BC-3 | MEL-HO | SIMA | SIG-M5 | NCI-H748 | SK-MEL-1 | OVCAR-8 | HCE-T | NCI-H1694 | CAL-148 | SNU-16 | ChaGo-K-1 | ARH-77 | DoTc2-4510 | NCCIT | 8305C | HPAF-II | ST486 | DMS-153 | NCI-H322M

CN1CCN(CCOc2cc(OC3CCOCC3)c3c(Nc4c(Cl)ccc5c4OCO5)ncnc3c2)CC1 [SARACATINIB]
1460 nM: ST486
> 2000 nM: KM-H2 | NCI-H1963 | NCI-H2081 | P31-FUJ | MRK-nu-1 | MC-CAR | Kasumi 1 | CHP-126 | IST-SL2 | KARPAS-299 | NCI-H64 | COR-L279 | SCC-3 | NCI-H524 | RPMI-8866 | IM-9 | NALM-6 | EHEB | BC-3 | SIMA | SIG-M5 | NCI-H748 | SK-MEL-1 | HCE-T | NCI-H1694 | CAL-148 | SNU-16 | ARH-77 | NCI-H716 | DMS-153 | NCI-H322M
907 nM: TK-10
1670 nM: RL95-2
1550 nM: EW-16
732 nM: NCCIT

CO[C@H]1C[C@@H]2CC[C@@H](C)[C@@](O)(O2)C(=O)C(=O)N2CCCC[C@H]2C(=O)O[C@H]([C@H](C)C[C@@H]2CC[C@@H](O)[C@H](OC)C2)CC(=O)[C@H](C)/C=C(\C)[C@@H](O)[C@@H](OC)C(=O)[C@H](C)C[C@H](C)/C=C/C=C/C=C/1C [SIROLIMUS]
0.107 nM: RL95-2
52.8 nM: ARH-77
< 0.391 nM: MRK-nu-1
99.2 nM: BC-3
87.3 nM: COR-L279
> 100 nM: KM-H2 | NCI-H1963 | NCI-H2081 | P31-FUJ | MC-CAR | Kasumi 1 | CHP-126 | IST-SL2 | TK-10 | NCI-H64 | SCC-3 | NCI-H524 | RPMI-8866 | IM-9 | NALM-6 | EHEB | SIMA | NCI-H748 | SK-MEL-1 | HCE-T | NCI-H1694 | CAL-148 | SNU-16 | NCCIT | ST486 | NCI-H716 | DMS-153 | NCI-H322M
17.2 nM: SIG-M5
61.8 nM: KARPAS-299
26.9 nM: EW-16

Cn1cncc1[C@@](N)(c1ccc(Cl)cc1)c1ccc2c(c1)c(-c1cccc(Cl)c1)cc(=O)n2C [TIPIFARNIB]
5270 nM: MHH-ES-1
1120 nM: MRK-nu-1
8000 nM: HCE-T
7950 nM: COR-L279
448 nM: HLE
5680 nM: TK-10
1680 nM: DoTc2-4510
4450 nM: OVCAR-8
13800 nM: COR-L23
976 nM: 8305C
4930 nM: NCI-H460
13300 nM: IST-SL2
327 nM: HCT-15
2240 nM: MEL-HO
< 62.5 nM: SIG-M5
7570 nM: HPAF-II
1280 nM: NCCIT
3590 nM: EW-16
1750 nM: ChaGo-K-1
36.2 nM: NALM-6
884 nM: CAL-148
2980 nM: BC-3
> 16000 nM: KM-H2 | NCI-H1963 | NCI-H2081 | P31-FUJ | CHP-126 | HT55 | ESS-1 | KARPAS-299 | NCI-H64 | SKG-IIIa | CaR-1 | SCC-3 | NCI-H524 | RPMI-8866 | IM-9 | EHEB | SIMA | NCI-H748 | SK-MEL-1 | NCI-H1694 | SNU-16 | ARH-77 | NCI-H716 | DMS-153 | NCI-H322M
9070 nM: MC-CAR
1260 nM: ST486

— ChEMBL document CHEMBL1201861, “Genomics of Drug Sensitity in Cancer screening data, Wellcome Trust Sanger Institute”
